The test system of one assay is locomotor activity. Kind of assay: Inhibition of locomotor activity in mice. It is filed as in vivo. The following applies: Mus musculus, IP. The procedure:
(§1) The compounds of Formula I are valuable dopaminergic agents. […] Thus, the compounds of Formula I were tested for their ability to inhibit locomotor activity in mice according to the assay described by J. R. McLean, et al, Pharmacology, Biochemistry and Behavior, Volume 8, pages 97-99 (1978); for their ability to inhibit [^3 H]-spiroperidol binding in a receptor assay described by D. Griogoriadis and P. Seeman, Journal of Neurochemistry, Volume 44, pages 1925-1935 (1985); and for their ability to inhibit dopamine synthesis in rats according to the protocol described by J. R. Walters and R. H. Roth, Naunyn-Schmiedeberg's Archives of Pharmacology, Volume 296, pages 5-14 (1976). The above test methods are incorporated herein by reference. The data in the table show the dopaminergic activity of representative compounds of Formula I.

The test system of another assay is brain dopamine synthesis. The experiment in a line: Reversal of brain dopamine synthesis in rats (inhibition of dopamine synthesis). It is filed as in vivo. The following applies: 10 mg/kg, IP. The procedure: as §1
Assay [1] has as its target [^3 H]spiroperidol binding. The experiment in a line: Inhibition of [^3 H]spiroperidol binding in a receptor assay. Conditions: [^3 H]spiroperidol radioligand. On the procedure:
as §1

Structures are written as SMILES. pIC50: −log10 of the molar value.

In the assay with locomotor activity, `C1=C(c2ccccc2)CCN(CCSCc2cccnc2)C1.Cl.Cl` [Example 1, 3-[[[2-(1,2,3,6-Tetrahydro-4-phenyl-1-pyridinyl)ethyl]thio]methyl]pyridine, dihydrochloride] gave an ED50 of 0.18 mg/kg. Further, in the assay on brain dopamine synthesis, the “% Reversal of Brain Dopamine Synthesis in Rats” value (shortened to “% Reversal”) is given as 70%.
As to `C1=C(c2cccs2)CCN(CCCSc2ccncc2)C1` [Example 2, 4-[[3-[3,6-Dihydro-4-(2-thienyl)-1(2H)-pyridinyl]propyl]thio]pyridine], the 50% effect level in the assay with locomotor activity (ED50) was put at a dose of 0.5 mg/kg. Besides, in assay [1], the pIC50 is 4.07.
In turn, `C1=C(c2ccccc2)CCN(CCCSc2ccncc2)C1` [Example 3, 4-[[3-(3,6-Dihydro-4-phenyl-1(2H)-pyridinyl)propyl]thio]pyridine] showed an ED50 with locomotor activity of 0.4 mg/kg. Further, the “% Reversal” value with brain dopamine synthesis came to 48%. This molecule showed a pIC50 in assay [1] of 4.34.
In the assay on locomotor activity, `C1=C(c2ccccc2)CCN(CCCCSc2ccncc2)C1` [Example 4, 1,2,3,6-Tetrahydro-4-phenyl-1-[4-(4-pyridinylthio)butyl]pyridine] came in with a median effective dose (ED50) of 1 mg/kg. The “% Reversal” value with brain dopamine synthesis came to 82%. This molecule also showed a pIC50 in assay [1] of 4.04.
For `C1=C(c2cccs2)CCN(CCCCSc2ccncc2)C1.Cl.Cl` [Example 5, 1,2,3,6-Tetrahydro-1-[4-(4-pyridinylthio)butyl]-4-(2-thienyl)pyridine, dihydrochloride] the same measures were 1.8 mg/kg, 47% and 3.72.

For orientation: ED50 means the midpoint of the dose-response relation. A higher ED50 goes with a need for a large dose. By pIC50 is commonly meant the IC50 on a negative log10 scale, so that one unit is a factor of ten. High values mean a small IC50, low ones a large IC50.

Values taken from patent US5120748A, “Substituted 1,2,3,6-tetrahydropyridines as central nervous system agents” (Warner-Lambert Company, priority 1991, dated 1992).
